# Laboratory results as given in the supplement of paper PMC10307832.
# Assays:
# Assay in all cases: relative viability (nuclei count vs DMSO), 5 days (fraction); higher = more cells survive
# [1] = compound: C1=CC=C2C(=C1)C=CC(=C2SSC3=C(C=CC4=CC=CC=C43)O)O [IPA-3] + N=C(N)NC(=N)NCCc1ccccc1 [Phenformin] (partner 250 µM)
# How it was run: (§1)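 Lung cancer cell lines were seeded in 1536-well plates and dosed by pin tool the next day, with either a single drug or a fixed anchor-drug dose combined with five library-drug doses (not always all listed) spaced in √10 steps. Five days later, one step fixed the cells and stained their nuclei (final 0.05% Triton X-100, 1% formaldehyde, 1 ug/ml Hoechst), and nuclei were counted on 4× images. Relative viability is the nuclei count in treated wells divided by the count in vehicle wells, and each value is the median of duplicate plates.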
# [2] = compound: Cc1ccc(-n2nc(C(C)(C)C)cc2NC(=O)Nc2ccc(OCCN3CCOCC3)c3ccccc23)cc1 [Doramapimod] + C[C@@H](Oc1cc(-c2cnn(C3CCNCC3)c2)cnc1N)c1c(Cl)ccc(F)c1Cl [Crizotinib] (partner 1 µM)
# How it was run: as §1
# [3] = compound: Cc1ccc(-n2nc(C(C)(C)C)cc2NC(=O)Nc2ccc(OCCN3CCOCC3)c3ccccc23)cc1 [Doramapimod] + N=C(N)NC(=N)NCCc1ccccc1 [Phenformin] (partner 250 µM)
# How it was run: as §1
# [4] = compound: Cn1c(Nc2ccc(C(F)(F)F)cc2)nc2cc(Oc3ccnc(-c4ncc(C(F)(F)F)[nH]4)c3)ccc21 [RAF265] + Cc1cc(Nc2cc(N3CCN(C)CC3)nc(Sc3ccc(NC(=O)C4CC4)cc3)n2)n[nH]1 [Tozasertib] (partner 0.1 µM)
# How it was run: as §1
Cell Line,relative viability ([1]; first compound 0.2 µM),relative viability ([1]; first compound 0.6325 µM),relative viability ([1]; first compound 2 µM),relative viability ([1]; first compound 6.325 µM),relative viability ([1]; first compound 20 µM),relative viability ([2]; first compound 0.02 µM),relative viability ([2]; first compound 0.06325 µM),relative viability ([2]; first compound 0.2 µM),relative viability ([2]; first compound 0.6325 µM),relative viability ([2]; first compound 2 µM),relative viability ([3]; first compound 0.02 µM),relative viability ([3]; first compound 0.06325 µM),relative viability ([3]; first compound 0.2 µM),relative viability ([3]; first compound 2 µM),relative viability ([4]; first compound 0.01 µM),relative viability ([4]; first compound 0.03162 µM),relative viability ([4]; first compound 0.1 µM),relative viability ([4]; first compound 0.3162 µM),relative viability ([4]; first compound 1 µM),relative viability ([3]; first compound 0.6325 µM)
HCC-44,0.232,0.245,0.176,0.234,0.184,0.884,0.856,0.755,0.771,0.772,0.267,0.247,0.22,0.241,0.892,0.779,1.25,1.07,0.821,
A-427,0.395,0.295,0.288,0.253,0.447,0.927,0.933,0.98,,0.932,0.269,0.464,0.388,0.318,0.218,0.213,0.205,0.109,0.089,
SW 1573,0.465,0.35,0.401,0.342,0.17,0.827,0.613,0.646,0.75,0.743,0.355,0.304,0.306,0.236,0.168,0.24,0.171,0.183,0.139,0.301
NCI-H322M,0.821,0.749,0.835,0.89,0.96,0.899,0.949,1.02,1.02,0.924,0.813,0.782,0.852,0.828,0.479,0.462,0.306,0.327,0.223,0.909
ABC-1,0.258,0.247,0.236,0.258,0.235,1.03,1.09,0.842,0.75,1.29,0.208,0.232,0.278,0.221,0.17,0.202,0.178,0.158,0.24,0.281
LK-2,0.408,0.456,0.421,0.43,0.438,0.246,0.266,0.207,0.207,0.205,0.278,0.332,0.382,0.246,0.164,0.166,0.153,0.178,0.152,0.282
NCI-H2023,0.51,0.403,0.496,0.409,0.436,0.695,0.629,0.575,0.666,0.625,0.413,0.379,0.404,0.323,0.314,0.497,0.466,0.286,0.183,0.415
NCI-H596,0.906,0.829,0.668,0.817,0.787,0.95,0.95,1.02,1.01,1,0.672,0.689,0.672,0.703,1.04,0.959,1.06,0.888,0.728,0.795
